Measured values published in article PMC11847541, “Liver fatty acid binding protein FABP1 transfers substrates to cytochrome P450 4A11 for catalysis” (The Journal of Biological Chemistry, 2025).

Biological target: T1, P450 4A11 (Homo sapiens, UniProt Q02928)
T1 sequence (Q02928 5-519): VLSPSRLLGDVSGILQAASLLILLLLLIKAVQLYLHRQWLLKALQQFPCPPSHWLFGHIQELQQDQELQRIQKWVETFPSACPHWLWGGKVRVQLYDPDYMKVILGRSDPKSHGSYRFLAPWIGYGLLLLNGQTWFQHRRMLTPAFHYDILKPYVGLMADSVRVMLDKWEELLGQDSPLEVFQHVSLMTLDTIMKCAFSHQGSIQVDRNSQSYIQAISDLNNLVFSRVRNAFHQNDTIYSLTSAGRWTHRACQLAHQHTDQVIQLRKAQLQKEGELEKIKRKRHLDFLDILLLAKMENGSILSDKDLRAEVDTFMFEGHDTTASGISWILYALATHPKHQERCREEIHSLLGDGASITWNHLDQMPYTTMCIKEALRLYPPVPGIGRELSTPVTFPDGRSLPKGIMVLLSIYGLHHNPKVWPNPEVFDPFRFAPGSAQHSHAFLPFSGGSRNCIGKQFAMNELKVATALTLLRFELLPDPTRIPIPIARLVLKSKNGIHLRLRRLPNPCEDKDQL
Type: biochemical
Set-up: made in house; host or cells: E. coli
Description: To differentiate between the two possible roles of FABP1 in P450 catalysis (competitive binder versus direct transfer, Fig. 2), two catalytic experiments testing palmitate oxidation were designed: one in which the FABP1 concentration was varied with a fixed concentration of palmitate (Fig. 12A) and another performed vice versa (Fig. 12B).
Dashed lines are the predicted kinetic data from the free ligand model (blue) and the direct transfer model (red) using the experimentally determined rate constants (Table 1, Fig. 2). A reaction performed without the addition of FABP1 (open circles) was also fit to a modeled curve (black dashed line), which utilizes only the rate constants determined for P450 4A11. Error bars reflect standard deviation of two replicate values, that is, range (if not visible, the deviation is too small to be represented). FABP1, fatty acid binding protein.
Potassium phosphate buffer (100 mM, pH 7.4), DTT (1 mM, added as described earlier ([44], [56])), and [1-^14C]-palmitate (5 μM, 20 mCi/mmol [added from a 1 mM stock in C2H5OH]) were added, and the mixture was split between vials. Just prior to the reaction preincubation, FABP1 (0–5 μM) was added (diluted so the same volume of FABP1 stock solutions were added to each sample). The mixtures were preincubated (5 min, 37 °C), and P450 4A11 activity was initiated with an NADPH-regenerating system ([78]), the addition of which brought reactions to their final volume (0.5 ml). Reactions (5 min) were quenched via the addition of CH2Cl2 (5 ml), were mixed with a vortex device, and were placed on ice. After the completion of the time course, the samples were centrifuged (1000g, 5 min, 23 °C) to separate layers, the organic layer (4 ml) was transferred to fresh vials, and the solvent was removed under a stream of N2. […] The column eluate was mixed (1:2, v/v) with FlowLogic U scintillation cocktail (LabLogic), and radioactivity (^14C) was detected using a β-RAM Model 5 radioflow detector (IN/US; LabLogic). Product was quantitated on the basis of its ^14C peak area relative to the summed radioactivity of the substrate and product.
To determine the reaction rate versus palmitate concentration, a similar reconstitution premixture was prepared with the modification that FABP1 (5 μM) was used instead of palmitate, and the concentrations of P450 4A11 and NADPH–P450 reductase were increased to 0.3 μM and 0.6 μM, respectively. […] The residue was dissolved in 50 μl C2H5OH, transferred to autosampler vials, and analyzed on LC–MS as described earlier (see “Quantitation of ligand-bound FABP1”) but set to operate in the negative-ion mode with the gradient mobile phase modified to (all % v/v: 0 min, 65% B; 0.5 min, 65% B; 5 min, 100% B; 7.5 min, 100% B; 7.6 min, 65% B; 9 min, 65% B). […]

Row | maximal observed rate of reaction (- cytochrome b5) | kcat estimate (- cytochrome b5, P450 4A11 0.05 µM) | maximum measurable rate of reaction (k2) (palmitate oxidation, without cytochrome b5, did not saturate) | Compound | reduction of enzyme activity
1 | 12 ± 1 min⁻¹ | 0.483 ± 0.05 s⁻¹ | 0.2 s⁻¹ | CCCCCCCCCCCCCCCC(=O)O [Palmitate (C16), palmitate] | 
2 |  |  |  | FABP1: delipidated recombinant liver fatty acid binding protein with C-terminal hexahistidine tag | ≤ 50%
